Measured values taken from patent US7008636B2, “2,3,5-substituted biphenyls useful in the treatment of insulin resistance and hyperglycemia” (Wyeth, priority 1998, dated 2006).

What was measured:
[1] = biological target: T1, recombinant, human protein tyrosine phosphatase (PTP) 1B (hPTP1B) (Homo sapiens, UniProt P18031); test: Inhibition of tri-phosphorylated insulin receptor dodecaphosphopeptide dephosphorylation by hPTP1B; format: biochemical; conditions: 50 μM IR triphosphopeptide substrate, 5 min preincubation and 5 min reaction at 37° C., malachite green-ammonium molybdate phosphate detection
T1 construct: made in house
T1 sequence (P18031 1-435): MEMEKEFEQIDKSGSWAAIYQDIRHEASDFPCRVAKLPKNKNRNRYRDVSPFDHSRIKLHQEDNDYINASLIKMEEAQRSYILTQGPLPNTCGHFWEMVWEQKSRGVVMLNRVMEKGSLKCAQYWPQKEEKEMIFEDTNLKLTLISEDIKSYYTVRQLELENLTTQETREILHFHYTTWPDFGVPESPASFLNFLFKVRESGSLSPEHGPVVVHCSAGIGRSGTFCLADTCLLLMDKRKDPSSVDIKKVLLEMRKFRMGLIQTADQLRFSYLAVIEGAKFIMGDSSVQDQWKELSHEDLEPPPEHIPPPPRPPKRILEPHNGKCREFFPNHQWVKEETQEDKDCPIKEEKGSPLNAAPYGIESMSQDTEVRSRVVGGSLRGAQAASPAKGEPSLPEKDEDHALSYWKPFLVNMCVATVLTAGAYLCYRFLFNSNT

Row | Compound | IC50 [1] [nM] | melting point
1 | CC(C)(C)c1ccc(COCCCCCCNC(=O)c2cc(-c3cccc(C(F)(F)F)c3)c(OCC(=O)O)c(-c3cccc(C(F)(F)F)c3)c2)cc1 [Example 13, {5′-[6-(4-tert-Butyl-benzyloxy)-hexylcarbamoyl]-3,3″-bis-trifluoromethyl-[1,1′;3′,1″]terphenyl-2′-yloxy}-acetic acid] | 320 | 156 to 158 °C
2 | O=C(O)COc1c(-c2cccc(C(F)(F)F)c2)cc(C(=O)NCCCCCCOCc2ccc(OCc3ccccc3)cc2)cc1-c1cccc(C(F)(F)F)c1 [Example 14, {5′-[6-(4-Benzyloxy-benzyloxy)-hexylcarbamoyl]-3,3″-bis-trifluoromethyl-[1,1′;3′1″]terphenyl-2′-yloxy}-acetic acid] | 366 | 127 to 130 °C
3 | O=C(O)COCCOc1c(-c2cccc(C(F)(F)F)c2)cc(C(=O)NCCCCCCc2ccccc2)cc1-c1cccc(C(F)(F)F)c1 [Example 18, {2-[5′-(6-Phenyl-hexylcarbamoyl)-3,3″-bis-trifluoromethyl-[1,1′;3′,1″]terphenyl-2′-yloxy]-ethoxy}acetic acid] | 710 | 74.7 to 75.9 °C
4 | O=C(O)COc1c(-c2cccc(C(F)(F)F)c2)cc(C(=O)NCCCCCCOCc2ccc(F)cc2F)cc1-c1cccc(C(F)(F)F)c1 [Example 19, {5′-[6-(2,4-Difluoro-benzyloxy)-hexylcarbamoyl]-3,3″-bis-trifluoromethyl-[1,1′;3′1″]terphenyl-2′yloxy}-acetic acid] | 728 | 149.9 to 150.6 °C
5 | O=C(O)COc1c(-c2cccc(C(F)(F)F)c2)cc(C(=O)NCCCCCCOCc2ccc(-c3ccccc3)cc2)cc1-c1cccc(C(F)(F)F)c1 [Example 20, {5′-[6-(Biphenyl-4-ylmethoxy)-hexylcarbamoyl]-3,3″-bis-trifluoromethyl-[1,1′;3′,1″]terphenyl-2′-yloxy}-acetic acid] | 379 | 133.2 to 133.9 °C
6 | COc1cccc(-c2cccc(-c3cc(OC)cc(C(=O)N(C)CCCCCCCCc4ccccc4)c3)c2OCC(=O)O)c1 [Example 21, {3,3″-Dimethoxy-5″-[methyl-(8-phenyl-octyl)-carbamoyl]-[1,1′;3′,1″]terphenyl-2′-yloxy}-acetic acid] | 880 | 148.9 to 149.7 °C
7 | O=C(O)COCCOc1c(-c2cc(Cl)cc(Cl)c2)cc(C(=O)NCCCCCCc2ccccc2)cc1-c1cc(Cl)cc(Cl)c1 [Example 22] | 250 | 78.5 to 79.9 °C
8 | Cc1cc(COCCCCCCNC(=O)c2cc(-c3ccc(F)c(Cl)c3)c(OCC(=O)O)c(-c3ccc(F)c(Cl)c3)c2)c(C)o1 [Example 26, {3,3″-Dichloro-5′-(6-(2,5-dimethyl-furan-3-ylmethoxy)-hexylcarbamoyl]-4-4″-difluoro-[1,1′;3′,1″]terphenyl-2′-yloxy}-acetic acid] | 207 | 90 to 91.2 °C
9 | Cc1cc(COCCCCCCNC(=O)c2cc(-c3cccc(C(F)(F)F)c3)c(OCC(=O)O)c(-c3cccc(C(F)(F)F)c3)c2)c(C)o1 [Example 30, {5′-[6-(2,5-Dimethyl-furan-3-ylmethoxy)-hexylcarbamoyl]-3,3″-bis-trifluoromethyl-[1,1′;3′,1″]terphenyl-2′-yloxy}-acetic acid] | 220 | 107.9 to 108.5 °C
10 | CCCCCCCCCCCCCCCCNc1c(Nc2cc(-c3ccccc3)c(OCC(=O)O)c(-c3ccccc3)c2)c(=O)c1=O [Example 32, [5′-(2-Hexadecylamino-3,4-dioxo-cyclobut-1-enylamino)-[1,1′;3′,1″]terphenyl-2′-yloxy]-acetic acid] | 17 | 132.5 to 133.7 °C
11 | CCCCCCCCCCCCCCCCCCOc1cc(-c2ccccc2)c(OCC(=O)O)c(-c2ccccc2)c1 [Example 36, (5′-Octadecyloxy-[1,1′;3′,1″]terphenyl-2′-yloxy)-acetic acid] | 24 | 90.5 to 92 °C
12 | O=C(O)COc1c(-c2ccccc2)cc(-c2c3ccccc3cc3sc4ccccc4c23)cc1-c1ccccc1 [Example 37, (5′-Benzo[b]naphtho[2,3-d]thiophen-11-yl-[1,1′;3′,1″]terphenyl-2′-yloxy)-acetic acid] | 118 | > 136 °C (dec.)
13 | O=C(O)COc1c(Br)cc(C(=O)NCCCCCCc2ccccc2)cc1-c1ccccc1F [Example 79, [3-Bromo-2′-fluoro-5-(6-phenyl-hexylcarbamoyl)-biphenyl-2-yloxy]acetic acid] | – | > 84 °C (dec.)
14 | CCCCCCCCCCCCNC(=O)c1cc(Br)c(OCCn2ccnn2)c(-c2cccc(C(F)(F)F)c2)c1 [Example 181, 5-Bromo-6-(2-[1,2,3]triazol-1-yl-ethoxy)-3′-trifluoromethyl-biphenyl-3-carboxylic acid dodecylamide] | – | 70.5 to 72.5 °C
15 | CCCCCCCCCCCCNC(=O)c1cc(Br)c(OCCn2ncnn2)c(-c2cccc(C(F)(F)F)c2)c1 [Example 182, 5-Bromo-6-(2-tetrazol-2-yl-ethoxy)-3′-trifluoromethyl-biphenyl-3-carboxylic acid dodecylamide] | – | 75.6 to 76.2 °C
16 | CCCCCCCCCCCCNC(=O)c1cc(Br)c(OCCn2cnnn2)c(-c2cccc(C(F)(F)F)c2)c1 [Example 183, 5-Bromo-6-(2-tetrazol-1-yl-ethoxy)-3′-trifluoromethyl-biphenyl-3-carboxylic acid dodecylamide] | – | 91.5 to 92.6 °C
17 | CCCCCCCCCCCCNC(=O)c1cc(Br)c(OCCNC(N)=O)c(-c2cccc(C(F)(F)F)c2)c1 [Example 187, 5-Bromo-3′-trifluoromethyl-6-(2-ureido-ethoxy)-biphenyl-3-carboxylic acid dodecylamide] | – | 122.5 to 125.1 °C

Other lines, results leading:

Row | IC50 [1] [nM] | melting point | Compound
18 | 195 | 150 to 153 °C | CCCCCCCCCCCCNC(=O)c1cc(-c2ccccc2)c(OCC(=O)O)c(-c2ccccc2)c1 [Example 8, (5′-Dodecylcarbamoyl-[1,1′;3′,1″]terphenyl-2′-yloxy)-acetic acid]
19 | 165 | 65 to 68 °C | CCCCCCCCCCCCNC(=O)c1cc(-c2ccc(OC)cc2)c(OCC(=O)O)c(-c2ccc(OC)cc2)c1 [Example 9, (5′-Dodecylcarbamoyl-4,4″-dimethoxy-[1,1′;3′,1″]terphenyl-2′-yloxy)-acetic acid]
20 | 102 | 114 to 117 °C | CCCCCCCCCCCCNC(=O)c1cc(-c2ccc(OC)cc2)c(OCC(=O)O)c(-c2cccc(Cl)c2)c1 [Example 10, (3-Chloro-5′-dodecylcarbamoyl-4″-methoxy-[1,1°;3′]terphenyl-2′-yloxy)-acetic acid]
21 | 115 | 57 to 58 °C | CCCCCCCCCCCCNC(=O)c1cc(-c2cccc(OC)c2)c(OCC(=O)O)c(-c2cccc(OC)c2)c1 [Example 11, (5′-Dodecylcarbamoyl-3,3″-dimethoxy-[1,1′;3′1″]terphenyl-2′-yloxy)-acetic acid]
22 | 186 | 79.2 to 80.5 °C | COc1ccc(-c2cc(C(=O)NCCCCCCCCc3ccccc3)cc(-c3cccc(Cl)c3)c2OCC(=O)O)cc1 [Example 15, [3″-Chloro-4-methoxy-5′-(8-phenyl-octylcarbamoyl)-[1,1′;3′,1″]terphenyl-2′-yloxy]-acetic acid]
23 | 343 | 66.8 to 67.5 °C | COc1ccc(-c2cc(C(=O)N(C)CCCCCCCCc3ccccc3)cc(-c3cccc(Cl)c3)c2OCC(=O)O)cc1 [Example 16, {3″-Chloro-4-methoxy-5′-[methyl-(8-phenyl-octyl)-carbamoyl]-[1,1′;3′, 1″]terphenyl-2′-yloxy}-acetic acid]
24 | 284 | 67.3 to 68.7 °C | COc1cccc(-c2cc(C(=O)NCCCCCCCCc3ccccc3)cc(-c3cccc(OC)c3OCC(=O)O)c2)c1 [Example 17, [3,3″-Dimethoxy-5′-(8-phenyl-octylcarbamoyl)-[1,1′;3′,1″]terphenyl-2-yloxy]-acetic acid]
25 | 365 | > 95 °C | COc1ccc(-c2cc(C(=O)NCCCCCCCCc3ccccc3)cc(-c3ccc(OC)cc3)c2OCC(=O)[O-])cc1.[Na+] [Example 23, [4,4″-Dimethoxy-5′-(8-phenyl-octylcarbamoyl)-[1,1′;3′,1″]terphenyl-2′yloxy]acetic acid sodium salt]
26 | 121 | 113 to 115.5 °C | CCCCCCCCOc1cc(-c2cccc(Cl)c2)c(OCC(=O)O)c(-c2cccc(Cl)c2)c1 [Example 46, (3,3″-Dichloro-5′-octyloxy-[1,1′;3′,1″]terphenyl-2′-yloxy)acetic acid]
27 | – | 100 to 101 °C | CCCCCCCCCCCCNC(=O)c1cc(Br)c(OCCn2cnnn2)c(-c2cccc(OC)c2)c1 [Example 138, 5-Bromo-6-(2-tetrazol-1-yl-ethoxy)-3′-methoxy-biphenyl-3-carboxylic acid dodecylamide]
28 | – | 153 to 159 °C | COc1ccc(-c2cc(C(=O)NCCCCCCc3ccccc3)cc(-c3cccc(C(F)(F)F)c3)c2OCC(=O)O)cc1 [Example 157, [4″-Methoxy-5′-(6-phenyl-hexylcarbamoyl)-3-trifluoromethyl-[1,1′;3′,1″]terphenyl-2′-yloxy]acetic acid]
29 | – | 79.6 to 80.5 °C | CCCCCCCCCCCCNC(=O)c1cc(Br)c(OCCNC(=O)OC)c(-c2cccc(C(F)(F)F)c2)c1 [Example 188, [2-(3-Bromo-5-dodecylcarbamoyl-3′-trifluoromethyl-biphenyl-2-yloxy)-ethyl]-carbamic acid methyl ester]
